# According to US20250282770A1, “BIOLUMINESCENT PROBES TO TRACK STEM CELLS IN VIVO” (THE BOARD OF TRUSTEES OF THE UNIVERSITY OF ILLINOIS, priority 2024, published 2025):
# Legend:
# [1] = test system: 4T1-Luc tumors; experiment: Bioluminescence imaging of heterotopic breast cancer model with AlDeLuc; assay type: in vivo, BALB/c mice; conditions: 0.55 mg/kg retro-orbital
# Experimental: Generation of 4T1-Luc Breast Cancer Model. Female or male BALB/c mice (˜6 weeks old) were inoculated with 4T1-Luc cells (50 μL of 1×10^6 cells in 1:1 v/v serum-free RPMI 1640 media and Matrigel) via subcutaneous injections into each flank. Tumor volumes were measured using the caliper method every three days. Body weight was measured daily over the course of the experiment. After two weeks, the tumor was in the 200 to 400 mm^3 range.
# Bioluminescence Imaging of a Heterotopic Breast Cancer Model with AlDeLuc. BALB/c mice bearing 4T1-Luc tumors were anesthetized using isoflurane (1-3% for maintenance; up to 5% for induction) in oxygen from a precision vaporizer. After testing to ensure animals are fully under anesthesia, each mouse was administered a control solution of 1:19 v/v DMSO:PBS via retro-orbital injection. After 40 minutes, the mice were imaged on the IVIS imaging system. Luminescence was collected using an open filter set. ROIs were drawn around both the left and right tumors, and the intensity was calculated using the Living Image Analysis software.
# The following day the mice were anesthetized, and administered AlDeLuc (0.55 mg/kg, 1:19 v/v DMSO:PBS). […] Luminescence was collected using an open filter set. ROIs were drawn around both the left and right tumors, and the intensity was calculated using the Living Image Analysis software.
# [2] = test system: 4T1 murine mammary carcinoma cells; experiment: AlDeLuc activation in 4T1 cells, lysate bioluminescence; assay type: cell-based; conditions: 4T1 cell lysates; 100 μM, 60 minutes
# Experimental: Validation of ALDH-Mediated Activation of AlDeLuc in Murine Breast Cancer Cells. 4T1 cells were cultured in T75 culture flasks. After two days, cells had become ˜90% confluent. An aliquot of RPMI 1640 media (1 mL) was removed from each flask and replaced with either DEAB ([…], 0.5% DMSO) or vehicle (0.5% DMSO). After incubation for one hour, the solutions were aspirated, washed with PBS, and resuspended in fresh RPMI 1640 media (9 mL). Each flask was then incubated with the AlDeLuc (100 μM) and DEAB (500 μM) or AlDeLuc (100 μM) and vehicle (DMSO), each with a final concentration of 1% DMSO. After 60 minutes, this solution was aspirated, washed with fresh PBS, and detached from the culture flasks. The cells were then transferred to a 15 mL centrifuge tube and pelleted at 1000 rpm for 5 minutes at room temp. The cells were resuspended in PBS along with 10% protease inhibitor solution (1 protease inhibitor mini tablet per 10 mL of PBS, Pierce, Thermo Fisher Scientific) and sonicated on ice for 2.5 minutes (pulse 01, 01, 40%). The cell debris was removed via centrifugation and the supernatant was plated ([…]) into a 96-well plate (n=4 for each condition). […] ROIs were drawn around each well and the signal intensity was quantified using the Living Image Analysis software.
# [3] = test system: mesenchymal stem cells (MSCs); experiment: AlDeLuc in mesenchymal stem cells, lysed and treated with luciferase; assay type: cell-based; conditions: 20 μM, one hour, ~2.5×10^5 MSCs, lysed
# Experimental: Testing commenced by incubating MSCs with AlDeLuc (20 μM). After one hour, the cells were lysed, treated with luciferase, and imaged. […] Moreover, we wanted to allow for any oxidized N,N-diethyl luciferin substrate to accumulate for the highest possible signal.
# [4] = test system: 4T1-Luc cells; experiment: MTT cytotoxicity assay; assay type: cell-based, murine; conditions: up to the highest concentration tested (100 μM); 2 hours
# Experimental: MTT Cytotoxicity Assay. 48-well plates were seeded with 100,000 cells per well ([…]) and incubated at 37° C. with 5% CO2 for 16 hours (˜75% confluent). Media was removed and fresh RPMI 1640 media with 10% FBS containing 100, 50 25, 12.5, 6.25, 3.13, 1.56, or 0 μM AlDeLuc (1% DMSO final v/v) was added. The media was removed after two hours and replaced with 500 μL of 18:1 mixture of FBS-free RPMI 1640 and (3-(4,5-dimethylthiazol-2-yl)-2,5-diphenyltetrazolium bromide (MT, 5 mg/mL stock in PBS). The cells were incubated for one hour at the same conditions before the media was removed. DMSO (500 μL/well) was added, and the absorbance was read at 555 nm on a microplate reader. Viability was calculated by the absorbance relative to the vehicle control. Values are reported as the mean±standard deviation (n=3).
# [5] = biological target: T1, β-Galactosidase (Escherichia coli, UniProt P00722); experiment: Stability of AlDeLuc to β-Galactosidase; assay type: biochemical; conditions: 10 μM; 1 unit of β-Gal
# T1 construct: purchased Millipore-Sigma Aldrich
# Experimental: Exploring the Stability of AlDeLuc to β-Galactosidase. The stability of AlDeLuc (10 μM) against β-Galactosidase (β-gal) was determined using a black 96-well plate and monitored using the IVIS imaging system. In a 96-well plate was added PBS (pH 7.4), β-gal (1 unit), and AlDeLuc. As a positive control to the same plate, was added PBS (pH 7.4), ALDH1A1 (0.4 μM), NAD^+ (1 mM), and acid activated AlDeLuc. Immediately after AlDeLuc was added, ATP-MgSO4 (45 μL, prepared by mixing 17.78 mM ATP-Mg and 35.56 mM MgSO4 in a 1:1 ratio in PBS buffer) and luciferase (5 μL, 1 mg/mL in PBS containing 10% glycerol) were administered to initiate bioluminescence production. Light was collected promptly after mixing, and the total luminescent counts were measured for both conditions. The total volume of each well was 200 μL with 0.1% DMSO. All data reported as the mean±standard deviation (n=4).
# T1 sequence (P00722 2-1024): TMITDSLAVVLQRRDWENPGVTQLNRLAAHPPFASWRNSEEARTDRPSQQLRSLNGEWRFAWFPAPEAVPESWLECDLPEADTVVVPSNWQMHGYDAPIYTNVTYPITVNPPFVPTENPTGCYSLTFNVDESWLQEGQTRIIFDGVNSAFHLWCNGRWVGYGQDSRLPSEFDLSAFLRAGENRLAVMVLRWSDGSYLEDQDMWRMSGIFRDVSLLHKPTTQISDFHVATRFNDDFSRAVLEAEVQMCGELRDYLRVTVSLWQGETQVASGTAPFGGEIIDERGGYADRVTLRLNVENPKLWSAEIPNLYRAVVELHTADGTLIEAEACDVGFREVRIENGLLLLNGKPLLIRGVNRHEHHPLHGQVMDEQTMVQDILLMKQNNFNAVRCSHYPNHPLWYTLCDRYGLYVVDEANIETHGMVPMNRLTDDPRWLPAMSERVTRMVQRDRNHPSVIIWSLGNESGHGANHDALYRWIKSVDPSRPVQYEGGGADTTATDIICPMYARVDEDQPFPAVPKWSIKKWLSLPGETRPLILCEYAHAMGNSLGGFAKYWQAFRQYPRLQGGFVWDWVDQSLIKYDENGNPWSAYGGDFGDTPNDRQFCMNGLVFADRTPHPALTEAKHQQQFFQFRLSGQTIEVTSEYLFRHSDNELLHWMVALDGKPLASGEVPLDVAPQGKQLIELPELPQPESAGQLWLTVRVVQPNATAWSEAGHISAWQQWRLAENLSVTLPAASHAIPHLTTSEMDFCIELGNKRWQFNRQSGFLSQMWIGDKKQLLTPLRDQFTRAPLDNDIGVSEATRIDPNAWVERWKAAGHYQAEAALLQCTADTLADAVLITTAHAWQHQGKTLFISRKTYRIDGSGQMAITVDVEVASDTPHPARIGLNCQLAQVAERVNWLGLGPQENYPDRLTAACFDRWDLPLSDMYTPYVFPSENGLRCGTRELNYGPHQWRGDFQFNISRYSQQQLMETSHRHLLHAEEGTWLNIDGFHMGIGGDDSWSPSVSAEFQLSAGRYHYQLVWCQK
structure (smiles),measurement,setting,value
"CCN(CC)c1ccc2nc(C3=N[C@@H](C(OC)OC)CS3)sc2c1 [AlDeLuc, (S)-2-(4-(dimethoxymethyl)-4,5-dihydrothiazol-2-yl)-N,N-diethylbenzo[d]thiazol-6-amine]",time at which tumor bioluminescence signal plateaued,[1]; 4T1-Luc tumors,40 min
same,signal at the 24-hour mark,[1]; 24 hours after administration,complete clearance
same,increase in bioluminescence compared to blank controls,[2],42 fold
same,bioluminescence of treated cells,[3],indistinguishable from blank controls
same,cell viability (MTT),[4],nontoxic
same,stability of acetal,[5],completely stable
